molecular target: T1, CXCR3 (Homo sapiens, UniProt P49682); assay: 125I-IP-10 binding assay; conditions: displacement of 125I-IP-10
T1 sequence (P49682 1-368): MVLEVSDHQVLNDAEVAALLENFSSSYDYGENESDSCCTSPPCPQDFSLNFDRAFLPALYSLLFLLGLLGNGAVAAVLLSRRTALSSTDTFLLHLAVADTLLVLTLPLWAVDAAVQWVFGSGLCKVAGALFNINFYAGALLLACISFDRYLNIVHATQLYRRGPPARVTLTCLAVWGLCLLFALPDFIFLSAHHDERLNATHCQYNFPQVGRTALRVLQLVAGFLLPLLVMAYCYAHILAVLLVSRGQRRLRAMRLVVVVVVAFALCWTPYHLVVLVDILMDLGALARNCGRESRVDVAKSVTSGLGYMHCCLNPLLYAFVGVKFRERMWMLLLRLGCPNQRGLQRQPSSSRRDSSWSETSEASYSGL

Row | IC50 | Structure (SMILES)
1 | > 1000 nM | FC(F)(F)c1ccc(N2CCC3(CC2)NCCc2c3[nH]c3ccccc23)c(C(F)(F)F)c1 [Example 11]
2 | < 500 nM | FC(F)(F)c1ccc(N2CCC3(CC2)NCCc2c3[nH]c3ccccc23)c(Cl)c1 [Example 5]
3 | > 1000 nM | N#Cc1cc(C(F)(F)F)ccc1N1CCC2(CC1)NCCc1c2[nH]c2ccccc12 [Example 10]
4 | > 1000 nM | Clc1cnc(N2CCC3(CC2)NCCc2c3[nH]c3ccccc23)c(Cl)c1 [Example 3]
5 | < 500 nM | O=[N+]([O-])c1cc(C(F)(F)F)cc(Cl)c1N1CCC2(CC1)NCCc1c2[nH]c2ccccc12 [Example 15]
6 | > 1000 nM | Clc1ccc(N2CCC3(CC2)NCCc2c3[nH]c3ccccc23)c(Cl)c1 [Example 16]
7 | 500 to 1000 nM | NC(=O)c1cc(C(F)(F)F)ccc1N1CCC2(CC1)NCCc1c2[nH]c2ccccc12 [Example 9]
8 | < 500 nM | FC(F)(F)c1cnc(N2CCC3(CC2)NCCc2c3[nH]c3ccccc23)c(Cl)c1 [Example 1]
9 | > 1000 nM | O=[N+]([O-])c1cc(C(F)(F)F)ccc1N1CCC2(CC1)NCCc1c2[nH]c2ccccc12 [Example 8]
10 | > 1000 nM | FC(F)(F)c1ccc(N2CCC3(CC2)NCCc2c3[nH]c3ccccc23)cc1 [Example 7]
11 | > 1000 nM | FC(F)(F)c1ccc(Cl)c(N2CCC3(CC2)NCCc2c3[nH]c3ccccc23)c1 [Example 6]
12 | > 1000 nM | FC(F)(F)c1cc(Cl)c(N2CCC3(CC2)NCCc2c3[nH]c3ccccc23)c(Cl)c1 [Example 14]
13 | > 1000 nM | Fc1cc(C(F)(F)F)ccc1N1CCC2(CC1)NCCc1c2[nH]c2ccccc12 [Example 12]
14 | > 1000 nM | FC(F)(F)c1ccc(N2CCC3(CC2)NCCc2c3[nH]c3ccccc23)nc1 [Example 2]
15 | > 1000 nM | COC(=O)c1ccc(N2CCC3(CC2)NCCc2c3[nH]c3ccccc23)c(Cl)c1 [Example 19]
16 | > 1000 nM | O=[N+]([O-])c1ccc(N2CCC3(CC2)NCCc2c3[nH]c3ccccc23)c(Cl)c1 [Example 18]
17 | > 1000 nM | Cc1cc(C(F)(F)F)cnc1N1CCC2(CC1)NCCc1c2[nH]c2ccccc12 [Example 4]
18 | > 1000 nM | Clc1cc(I)ccc1N1CCC2(CC1)NCCc1c2[nH]c2ccccc12 [Example 17]
19 | > 1000 nM | FC(F)(F)c1ccc(N2CCC3(CC2)NCCc2c3[nH]c3ccccc23)c(Br)c1 [Example 13]

Reference: patent US20070149557A1, “CXCR3 antagonists” (Amgen Inc., priority 2005, published 2007)
